From publication PMC8786951, “Identification of an allatostatin C signaling system in mollusc Aplysia” (Scientific Reports, 2022)
Several values for one entry are separate records, joined by “and”; a condition that tells them apart may be missing. Equal entries are not always repeated. Where two headings read alike, the source gives them in different places. Where a SMILES comes first, the peptide text is derived from it. Bridges are numbered along the chain shown (N, C = ends).

Experiments:
AstC-R = biological target: T1, AstC-R (Aplysia californica, UniProt A0ABM0JJJ7); test: IP1 accumulation assay, CHO-K1 cells expressing putative receptor AstC-R; type: cell-based; settings: for EC50: IP1 accumulation, CHO cells co-transfected with AstC-R and Gα16 plasmids, peptide 10^–12 M to 10^–4 M; for Screening: IP1 concentration on AstC-R at 10^–5 M vs 10^–10 M: CHO cells co-transfected with AstC-R and Gα16, 10^–10 M used as control, paired t-test, n = 6 (AstC' n = 5; AstCG-DP, SPTR n = 3); for IP1 response of AstC-R, preliminary experiments: CHO cells transfected with receptor plasmid only, without Gα16
T1 sequence (A0ABM0JJJ7 1-425): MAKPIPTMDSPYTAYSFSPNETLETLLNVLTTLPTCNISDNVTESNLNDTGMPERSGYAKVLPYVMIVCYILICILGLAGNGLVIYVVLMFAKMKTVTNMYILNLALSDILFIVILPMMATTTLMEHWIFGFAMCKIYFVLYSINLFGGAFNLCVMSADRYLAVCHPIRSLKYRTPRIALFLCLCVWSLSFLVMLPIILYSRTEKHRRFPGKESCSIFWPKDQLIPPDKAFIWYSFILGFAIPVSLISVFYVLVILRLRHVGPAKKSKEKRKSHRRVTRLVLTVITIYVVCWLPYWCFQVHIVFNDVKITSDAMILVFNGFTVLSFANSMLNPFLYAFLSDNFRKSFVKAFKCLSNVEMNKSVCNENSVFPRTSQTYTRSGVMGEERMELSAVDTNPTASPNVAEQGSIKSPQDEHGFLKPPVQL
Description: Because Gα16 is a promiscuous Gαq protein that will bind to most GPCRs[10],[53], this procedure would ensure an IP1 response when a potential ligand binds to its GPCR.
Inositol monophosphate 1 (IP1) accumulation assay measures concentration of IP1, that is hydrolyzed from the second messenger, […] (IP3), generated by Gαq pathway when a G-protein coupled receptor (GPCR) expressed in CHO-K1 cells is activated by an appropriate ligand. In order to express the Aplysia putative receptors transiently in CHO-K1, the cDNA was cloned into the mammalian expression vector pcDNA3.1( +). […] Transfection experiments were performed when the cells were grown to 70–90% confluence. In preliminary experiments, for each dish (60-mm diameter), 4 μg of the putative receptor plasmids [in pcDNA3.1( +)] were mixed with 400 μl of Opti-MEM (Gibco, 11058021), followed by the addition of 15 μl of Turbofect (Thermo Fisher Scientific, R0531). […] The CHO cells with the reagents added above were mixed gently, and incubated at room temperature for 15 min. The DNA/Turbofect mixture dropwise was then added to the dish, and the cells were incubated at 37 °C in 5% CO2 overnight. The next day, the cells were trypsinized and reseeded in opaque white 96-well half-area (Corning, 3688) or 384-well tissue culture-treated plates (Corning, 3570) at a density of 20,000 cells/well in F-12K and 10% FBS and incubated at 37 °C in 5% CO2 overnight. On the third day, the activation of the putative receptor was detected by monitoring IP1 accumulation using IP1 detection kit (Cisbio, 62IPAPEB) in Tecan Spark. Except for using 0.5 × reagent, all other procedures were performed in accordance with the IP1 detection kit manufacturer’s instructions. Peptides are synthesized by Sangon Biotech, Guoping Pharmaceutical or ChinaPeptides (Supplementary Fig. 4), and are aliquoted in 50 nmol EP tubes, stored at −20 °C until use.

Class-A_GPCR1 = test: IP1 accumulation assay, CHO-K1 cells expressing putative receptor Class-A_GPCR1 (control); type: cell-based, Aplysia californica; settings: CHO cells transfected with receptor plasmid only, without Gα16
Description: We cloned AstC-R and Class-A_GPCR1 into pcDNA3.1 plasmids, and expressed them in CHO cells. We then used the IP1 accumulation assay that detects IP1 generated in the Gαq pathway (see Methods) to determine whether our predicted Aplysia peptides (i.e., AstC or AstCG-DP) and other related peptides which we synthesized (see Fig. 7G) could activate the receptors. In preliminary experiments, we only transfected plasmids for a putative receptor in CHO cells. […] Thus, for all the experiments shown in Fig. 7, we co-transfected plasmids for the putative receptor and Gα16 plasmids in CHO cells. Because Gα16 is a promiscuous Gαq protein that will bind to most GPCRs[10],[53], this procedure would ensure an IP1 response when a potential ligand binds to its GPCR.
Inositol monophosphate 1 (IP1) accumulation assay measures concentration of IP1, that is hydrolyzed from the second messenger, […] (IP3), generated by Gαq pathway when a G-protein coupled receptor (GPCR) expressed in CHO-K1 cells is activated by an appropriate ligand. In order to express the Aplysia putative receptors transiently in CHO-K1, the cDNA was cloned into the mammalian expression vector pcDNA3.1( +). […] On the third day, the activation of the putative receptor was detected by monitoring IP1 accumulation using IP1 detection kit (Cisbio, 62IPAPEB) in Tecan Spark. […]

Platynereis receptor = settings: annelid Platynereis dumerilii allatostatin C on its putative receptor; cited from earlier work
Description: Growing databases of the Aplysia genome and transcriptome are becoming available, but relatively few studies have taken advantage of this information (see[53],[54]). […] Previous bioinformatic studies in several molluscs predicted the presence of an allatostatin C precursor (Fig. 3, e.g.,[57]) and of AstC with the ...

[1] = average EC50, n = 3, read-out: [EC50] on AstC-R
[2] = average log[EC50], n = 3, read-out: log[EC50] on AstC-R (converted)

Compound | EC50 (AstC-R; [1]) [nM] | EC50 (AstC-R; [2]) [nM] | Screening: IP1 concentration on AstC-R at 10^–5 M vs 10^–10 M (AstC-R) | other results
CC[C@H](C)[C@H](NC(=O)[C@H](Cc1c[nH]cn1)NC(=O)[C@@H](N)CO)C(=O)N[C@@H](CCCNC(=N)N)C(=O)N[C@H]1CSSC[C@@H](C(=O)N[C@@H](Cc2ccc(O)cc2)C(=O)O)NC(=O)[C@H](C)NC(=O)[C@H]([C@@H](C)CC)NC(=O)[C@H](C(C)C)NC(=O)[C@H](CC(N)=O)NC(=O)[C@H](C(C)C)NC(=O)[C@H](CC(C)C)NC1=O [AstC-C] (H-SHIRCLVNVIACY-OH; disulfide 5-12) | 111 | – | – | –
CSCC[C@H](NC(=O)[C@H](CO)NC(=O)[C@H](CO)NC(=O)[C@H](Cc1ccc(O)cc1)NC(=O)[C@@H](N)[C@@H](C)O)C(=O)N[C@H]1CSSC[C@@H](C(=O)N[C@@H](Cc2ccc(O)cc2)C(=O)O)NC(=O)[C@H](C)NC(=O)[C@H](C(C)C)NC(=O)[C@H](C(C)C)NC(=O)[C@H](CC(N)=O)NC(=O)[C@H](Cc2ccccc2)NC(=O)[C@H](CCSC)NC1=O [AstC-D] (H-TYSSMCMFNVVACY-OH; disulfide 6-13) | 18.9 | 15.8 | – | –
CC[C@H](C)[C@@H]1NC(=O)[C@H](CC(C)C)NC(=O)[C@H](CC(N)=O)NC(=O)[C@H](C(C)C)NC(=O)[C@H](CC(C)C)NC(=O)[C@@H](NC(=O)[C@H](CCSC)NC(=O)[C@@H](NC(=O)[C@H](Cc2c[nH]cn2)NC(=O)[C@@H](N)CO)C(C)C)CSSC[C@@H](C(=O)N[C@@H](Cc2ccccc2)C(=O)O)NC(=O)[C@H](CO)NC1=O [AstC-L] (H-SHVMCLVNLISCF-OH; disulfide 5-12) | 111 | 63.1 | – | –
CSCC[C@H](NC(=O)[C@H](CO)NC(=O)[C@H](CC(N)=O)NC(=O)[C@H](Cc1ccc(O)cc1)NC(=O)[C@H](Cc1c[nH]cn1)NC(=O)[C@@H](N)CO)C(=O)N[C@H]1CSSC[C@@H](C(=O)N[C@@H](Cc2ccc(O)cc2)C(=O)O)NC(=O)[C@H](C)NC(=O)[C@H](C(C)C)NC(=O)[C@H](C(C)C)NC(=O)[C@H](CC(N)=O)NC(=O)[C@H](Cc2ccccc2)NC(=O)[C@H](CCSC)NC1=O [AstC-T] (H-SHYNSMCMFNVVACY-OH; disulfide 7-14) | 17.7 | – | – | –
CSCC[C@H](NC(=O)[C@H](CO)NC(=O)[C@H](CO)NC(=O)[C@H](Cc1ccc(O)cc1)NC(=O)[C@H](Cc1c[nH]cn1)NC(=O)[C@@H](N)CO)C(=O)N[C@H]1CSSC[C@@H](C(=O)N[C@@H](Cc2ccc(O)cc2)C(=O)O)NC(=O)[C@H](C)NC(=O)[C@H](C(C)C)NC(=O)[C@H](C(C)C)NC(=O)[C@H](CC(N)=O)NC(=O)[C@H](Cc2ccccc2)NC(=O)[C@H](CCSC)NC1=O [AstC] (H-SHYSSMCMFNVVACY-OH; disulfide 7-14; N-terminus assumed) | 7.8 | 6.31 | significantly increased IP1 concentration | IP1 response of AstC-R, preliminary experiments (AstC-R): none of the receptors responded; IP1 response of Class-A_GPCR1, preliminary experiments (Class-A_GPCR1): none of the receptors responded
AVIPVSSPEPMEEASALQLLPGKI-NH2 [AstCG-DP, AstC gene-derived peptide predicted from the Aplysia AstC precursor, C-terminally amidated] | – | – | did not activate AstC-R significantly | IP1 response of AstC-R, preliminary experiments (AstC-R): none of the receptors responded; IP1 response of Class-A_GPCR1, preliminary experiments (Class-A_GPCR1): none of the receptors responded
MRYMG1CMKKQYNNF1PFPCLRS-NH2 (disulfide) [SPTR, another Aplysia peptide also with a disulfide bridge, reference compound] | – | – | did not activate AstC-R significantly | –
pQPVQCLVNIVSCWamide (disulfide) [allatostatin C] | – | – | – | EC50 (Platynereis receptor): 1000 nM and 1200 nM
